Test results published in publication PMC10533412, “Phosphoantigens glue butyrophilin 3A1 and 2A1 to activate Vγ9Vδ2 T cells” (Nature, 2023).
“And” between values parts separate entries of the source, which are not always exact repeats. Equal entries are not always repeated. Where two headings read alike, the source gives them in different places.

What was measured:
[1] = test system: MIA PaCa-2 cells; experiment: Cell killing assay: cytotoxicity of Vγ9Vδ2 T cells towards pAg- or zoledronate-treated MIA PaCa-2 cells (luciferase); type: cell-based, human; settings: Homo sapiens, MIA PaCa-2, read-out: EC50 (M) for MIA PaCa-2 cell lysis mediated by HMBPP analogs and Vγ9Vδ2 T cells
Procedure: (§4) MIA PaCa-2 cells were infected with lentivirus bearing luciferase transgene. Luciferase-positive cells were plated at 5.0 × 10^3 cells per well in 384-well plates 1 day before transfection. All plasmids were transfected into BTN2A^−/− MIA PaCa-2 (BTN2A1/BTN2A2 KO) cells using Lipofectamine 2000 reagent. […] Stable-lite luciferase (Vazyme) was added to each well and the luciferase signal was immediately measured by using the PerkinElmer EnVision microplate reader.
(§5) Percentage of lysis was calculated using the following equation: percentage of specific lysis = (maximum luciferase − experimental luciferase)/maximum luciferase × 100.

[2] = target: T1, BTN3A1 B30.2 domain (Homo sapiens, UniProt O00481); experiment: ITC: pAg binding to the BTN3A1 B30.2 domain; settings: 25 °C, read-out: KD, pAg binding to BTN3A1 B30.2 alone
T1 construct: The BTN3A1 B30.2 domain was expressed and purified as described previously; made in house
Procedure: (§1) ITC binding fits were calculated using MicroCal Analysis software.
For pAg binding to the BTN3A1 B30.2 domain, the sample cell and injection syringe were filled with the buffer containing 100 µM protein and 1 mM HMBPP, respectively, or 400 µM protein and 4 mM DMAPP (IPP), respectively.

[3] = target: T2, preconditioned BTN2A1–BTN3A1 B30.2 complex (Homo sapiens, UniProt O00481+Q7KYR7); experiment: ITC: pAg binding to the preconditioned BTN2A1 B30.2 and BTN3A1 B30.2 complex
T2 construct: The BTN3A1 B30.2 domain was expressed and purified as described previously; 6xHis; made in house; host or cells: Escherichia coli BL21 (DE3) for BTN2A1 B30.2
Procedure: as §1
For HMBPP binding to the preconditioned BTN2A1 B30.2 and BTN3A1 B30.2 complex, BTN2A1 B30.2 (20 µM) and BTN3A1 B30.2 (10 µM) were incubated in the buffer at a 2:1 ratio and loaded into the sample cell, and the injection syringe was filled with buffer containing 100 µM HMBPP.
For DMAPP/IPP binding to the preconditioned BTN2A1 B30.2 and BTN3A1 B30.2 complex, BTN2A1 B30.2 (200 µM) and BTN3A1 B30.2 (100 µM) were incubated in buffer at a 2:1 ratio and loaded into the sample cell, and the injection syringe was filled with buffer containing 1 mM DMAPP/IPP.
For other pAgs, their concentrations were adjusted to 500 µM, and BTN2A1 B30.2 and BTN3A1 B30.2 were adjusted to 100 µM and 50 µM at a 2:1 ratio.

[4] = target: VpBTN3 BFI (Vicugna pacos, UniProt A0A345DF50); experiment: ITC: pAg binding to VpBTN3 BFI; parameters: species or system alpaca (Vicugna pacos)
Procedure: (§2) ITC experiments were performed using the MicroCal PEAQ-ITC instrument (GE Healthcare) at 25 °C. We used an initial injection of 0.4 μl followed by 19 injections (2 µl each) at 150 s time intervals. ITC binding fits were calculated using MicroCal Analysis software. The samples were prepared using a buffer (20 mM HEPES pH 7.5, 150 mM NaCl).
(§3) ITC experiments of HMBPP, DMAPP or IPP binding to the VpBTN3 BFI (or the preconditioned VpBTN3 BFI and VpBTN2 BFI complex) and VpBTN2 BFI (or VpBTN1 BFI) binding to VpBTN3 BFI in the presence of HMBPP, DMAPP or IPP were performed according to the same procedures as for the BTN3A1 B30.2 and BTN2A1 B30.2.

[5] = test system: VpBTN1 BFI–VpBTN3 BFI; experiment: ITC: VpBTN1 BFI binding to VpBTN3 BFI in the presence of pAg; parameters: species or system alpaca (Vicugna pacos)
Procedure: as §2, §3

[6] = test system: Vγ9Vδ2 T cells; settings: cited from earlier work
[7] = test system: BTN2A−/− MIA PaCa-2 (BTN2A1/BTN2A2 KO) cells; experiment: Cell killing assay with BTN2A−/− MIA PaCa-2 (BTN2A1/BTN2A2 KO) cells expressing BTN2A1/BTN2A2 variants; settings: replicates and mean
Procedure: as §4, §5

T2 sequence (O00481 322-513 limits assumed): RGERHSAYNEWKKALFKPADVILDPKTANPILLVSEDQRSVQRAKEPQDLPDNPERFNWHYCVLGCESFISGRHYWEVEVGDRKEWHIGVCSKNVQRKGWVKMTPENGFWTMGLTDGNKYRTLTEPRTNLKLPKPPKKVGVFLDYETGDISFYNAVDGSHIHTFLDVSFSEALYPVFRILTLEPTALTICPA
T2 sequence (Q7KYR7 316-527 limits assumed): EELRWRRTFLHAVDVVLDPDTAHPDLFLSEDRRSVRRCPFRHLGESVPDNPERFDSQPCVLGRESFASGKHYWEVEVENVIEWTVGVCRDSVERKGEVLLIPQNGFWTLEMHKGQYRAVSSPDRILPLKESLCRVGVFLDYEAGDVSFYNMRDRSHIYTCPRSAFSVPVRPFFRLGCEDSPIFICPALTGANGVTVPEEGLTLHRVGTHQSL
T1 sequence (O00481 322-513 limits assumed): as the sequence (O00481 322-513 limits assumed) above
Sequence of VpBTN3 BFI (A0A345DF50 entry or part of it): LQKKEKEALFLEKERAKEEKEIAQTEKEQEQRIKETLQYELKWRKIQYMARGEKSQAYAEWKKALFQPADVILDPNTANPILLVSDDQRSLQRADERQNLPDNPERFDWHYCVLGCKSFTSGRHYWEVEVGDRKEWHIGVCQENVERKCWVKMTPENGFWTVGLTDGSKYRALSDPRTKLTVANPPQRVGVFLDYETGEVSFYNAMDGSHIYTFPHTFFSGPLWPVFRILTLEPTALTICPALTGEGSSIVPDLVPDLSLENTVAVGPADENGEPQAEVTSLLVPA

CC(C)=CCOP(=O)(O)OP(=O)(O)O [Compound 2, 3-methylbut-2-en-1-yl diphosphate]
EC50 [1]: 3.38e-05 M | Kd [2]: 120 µM | Kd ([3]; ITC, read-out: KD, pAg binding to the preconditioned BTN2A1–BTN3A1 B30.2 complex): 34.5 µM | Kd [4]: 92.7 µM | VpBTN1 binding to VpBTN3 in the presence of pAg [5]: does not bind | Vγ9Vδ2 T cell activation [6]: weakly activate | Cytotoxicity of Vγ9Vδ2 T cells (percentage of specific lysis) ([7]; DMAPP log concentration -3, 2A1 WT cells): 67.6357% and 66.8005% and 66.45% and 64.9272% | Cytotoxicity of Vγ9Vδ2 T cells (percentage of specific lysis) ([7]; DMAPP log concentration -3, 2A1 ∆C cells): 50.07% and 46.3428% and 49.8006% and 54.0592% | Cytotoxicity of Vγ9Vδ2 T cells (percentage of specific lysis) ([7]; DMAPP log concentration -4, 2A1 WT cells): 51.6139% and 52.9591% and 50.43% and 46.7133% | Cytotoxicity of Vγ9Vδ2 T cells (percentage of specific lysis) ([7]; DMAPP log concentration -4, 2A1 ∆C cells): 32.85% and 28.2229% and 33.1127% and 37.2268% | Cytotoxicity of Vγ9Vδ2 T cells (percentage of specific lysis) ([7]; DMAPP log concentration -5, 2A1 WT cells): 27.5187% and 30.1465% and 24.7% and 16.4296% | Cytotoxicity of Vγ9Vδ2 T cells (percentage of specific lysis) ([7]; DMAPP log concentration -5, 2A1 ∆C cells): 7.57% and 3.153% and 7.027% and 12.531% | Cytotoxicity of Vγ9Vδ2 T cells (percentage of specific lysis) ([7]; DMAPP log concentration -6, 2A1 WT cells): 16.7353% and 16.8396% and 11.83% and 1.904% | Cytotoxicity of Vγ9Vδ2 T cells (percentage of specific lysis) ([7]; DMAPP log concentration -6, 2A1 ∆C cells): -5.456% and -7.052% and -6.983% and -2.333% | Cytotoxicity of Vγ9Vδ2 T cells (percentage of specific lysis) ([7]; DMAPP log concentration -7, 2A1 WT cells): 14.3939% and 14.8552% and 15.57% and 17.4711% | Cytotoxicity of Vγ9Vδ2 T cells (percentage of specific lysis) ([7]; DMAPP log concentration -7, 2A1 ∆C cells): -6.482% and -4.367% and -8.1249% and -6.954% | Cytotoxicity of Vγ9Vδ2 T cells (percentage of specific lysis) ([7]; DMAPP log concentration -8, 2A1 WT cells): 15.6376% and 16.0032% and 16.43% and 17.6429% | Cytotoxicity of Vγ9Vδ2 T cells (percentage of specific lysis) ([7]; DMAPP log concentration -8, 2A1 ∆C cells): -6.047% and -3.94% and -7.782% and -6.418% | Cytotoxicity of Vγ9Vδ2 T cells (percentage of specific lysis) ([7]; DMAPP log concentration -9, 2A1 WT cells): 15.8717% and 18.2997% and 15.33% and 11.8213% | Cytotoxicity of Vγ9Vδ2 T cells (percentage of specific lysis) ([7]; DMAPP log concentration -9, 2A1 ∆C cells): -5.239% and -4.736% and -6.266% and -4.716% | Cytotoxicity of Vγ9Vδ2 T cells (percentage of specific lysis) ([7]; DMAPP log concentration -10, 2A1 WT cells): 19.1442% and 5.933% and 13.82% and 16.3962% | Cytotoxicity of Vγ9Vδ2 T cells (percentage of specific lysis) ([7]; DMAPP log concentration -10, 2A1 ∆C cells): -5.48% and -6.082% and -3.811% and -6.548%

C=C(C)CCO[P@@](=O)(O)OP(=O)(O)O [Compound 3, 3-methylbut-3-en-1-yl diphosphate]
EC50 [1]: 0.00493 M | Kd [2]: 658 µM | Kd [3]: 625 µM | Kd [4]: 96.1 µM | VpBTN1 binding to VpBTN3 in the presence of pAg [5]: does not bind | Vγ9Vδ2 T cell activation [6]: weakly activate | Cytotoxicity of Vγ9Vδ2 T cells (percentage of specific lysis) ([7]; IPP log concentration -3, 2A1 WT cells, listed as IPP): 80.272% and 79.8722% and 80.6% and 81.6589% | Cytotoxicity of Vγ9Vδ2 T cells (percentage of specific lysis) ([7]; IPP log concentration -3, 2A1 ∆C cells, listed as IPP): 66.24% and 65.5729% and 68.622% and 64.5211% | Cytotoxicity of Vγ9Vδ2 T cells (percentage of specific lysis) ([7]; IPP log concentration -4, 2A1 WT cells, listed as IPP): 65.5992% and 65.1182% and 63.37% and 59.3975% | Cytotoxicity of Vγ9Vδ2 T cells (percentage of specific lysis) ([7]; IPP log concentration -4, 2A1 ∆C cells, listed as IPP): 41.6% and 36.6007% and 47.2763% and 40.914% | Cytotoxicity of Vγ9Vδ2 T cells (percentage of specific lysis) ([7]; IPP log concentration -5, 2A1 WT cells, listed as IPP): 35.2807% and 27.2598% and 28.66% and 23.4468% | Cytotoxicity of Vγ9Vδ2 T cells (percentage of specific lysis) ([7]; IPP log concentration -5, 2A1 ∆C cells, listed as IPP): 1.679% and 1.84% and 2.699% and 0.4994% | Cytotoxicity of Vγ9Vδ2 T cells (percentage of specific lysis) ([7]; IPP log concentration -6, 2A1 WT cells, listed as IPP): 15.0716% and 6.17% and 6.634% and -1.341% | Cytotoxicity of Vγ9Vδ2 T cells (percentage of specific lysis) ([7]; IPP log concentration -6, 2A1 ∆C cells, listed as IPP): -15.39% and -15.1198% and -17.7309% and -13.3339% | Cytotoxicity of Vγ9Vδ2 T cells (percentage of specific lysis) ([7]; IPP log concentration -7, 2A1 WT cells, listed as IPP): 11.2422% and 4.023% and 5.64% and 1.654% | Cytotoxicity of Vγ9Vδ2 T cells (percentage of specific lysis) ([7]; IPP log concentration -7, 2A1 ∆C cells, listed as IPP): -18.31% and -18.7728% and -18.1549% and -17.992% | Cytotoxicity of Vγ9Vδ2 T cells (percentage of specific lysis) ([7]; IPP log concentration -8, 2A1 WT cells, listed as IPP): 11.2149% and 6.571% and 5.735% and -0.5797% | Cytotoxicity of Vγ9Vδ2 T cells (percentage of specific lysis) ([7]; IPP log concentration -8, 2A1 ∆C cells, listed as IPP): -16.71% and -15.5368% and -14.5401% and -20.0505% | Cytotoxicity of Vγ9Vδ2 T cells (percentage of specific lysis) ([7]; IPP log concentration -9, 2A1 WT cells, listed as IPP): 7.561% and 7.582% and 2.411% and -7.912% | Cytotoxicity of Vγ9Vδ2 T cells (percentage of specific lysis) ([7]; IPP log concentration -9, 2A1 ∆C cells, listed as IPP): -17.93% and -16.44% and -18.8245% and -18.5163% | Cytotoxicity of Vγ9Vδ2 T cells (percentage of specific lysis) ([7]; IPP log concentration -10, 2A1 WT cells, listed as IPP): 9.041% and 9.773% and 3.545% and -8.179% | Cytotoxicity of Vγ9Vδ2 T cells (percentage of specific lysis) ([7]; IPP log concentration -10, 2A1 ∆C cells, listed as IPP): -16.6% and -16.8802% and -17.0673% and -15.8455%

Cc1ccc(C/C(=C\COP(=O)(O)OP(=O)(O)O)CO)cc1 [HMBPP-08, (E)-4-hydroxy-3-(4-methylbenzyl)but-2-enyl diphosphate]
γδ T cell activation [6]: do not efficiently activate
